Assay results from publication PMC11990924, “Inhibition of Tyrosinase and Melanogenesis by Carboxylic Acids: Mechanistic Insights and Safety Evaluation” (Molecules, 2025).

What was measured:
mushroom tyrosinase = mushroom tyrosinase (Agaricus bisporus, UniProt C7FF04); assay: Inhibition of mushroom tyrosinase activity (L-DOPA, OD475); assay type: biochemical; conditions: read-out: tyrosinase inhibition rate
Protocol: L-DOPA solution (5 mM) and tyrosinase (400 U/mL) (Sigma-Aldrich, St. Louis, MO, USA) were prepared in PBS buffer (pH 7.4) (Qingdao Hope Bio-Technology Co., Ltd., Qingdao, China). A reaction mixture was prepared by combining 240 μL of carboxylic acid at various concentrations, 360 μL of L-DOPA solution, and 120 μL of tyrosinase. […] Deionized water was used as the control.

B16-F10 cells = assay: Proteomic analysis of B16-F10 cells (DIA mass spectrometry); assay type: cell-based, mouse; conditions: 6 mM vs control; Table S4
Protocol: B16-F10 cells were treated with various concentrations of carboxylic acids following the same culture protocol used for melanin inhibition assays. After treatment, the cells were collected and submitted to Shanghai Zhongke Xinming Biotechnology Co., Ltd. (Shanghai, China) for proteomics analysis. The collected cells were lysed with an appropriate volume of SDT lysis buffer (4% SDS, 100 mM Tris-HCl, pH 7.6) to extract proteins. DTT was added to reduce disulfide bonds, followed by incubation at room temperature for 1 h. Subsequently, iodoacetamide was added, and the mixture was reacted in the dark at room temperature for 30 min. The proteins were then digested with trypsin overnight. The resulting peptide fragments were desalted using a C18 cartridge. After freeze-drying, the peptides were resuspended in 40 μL of 0.1% formic acid solution, and the peptide concentration was determined by measuring the absorbance at 280 nm. An appropriate amount of internal reference for targeted proteomics (iRT) standard peptides was added to each sample for data-independent acquisition (DIA) mass spectrometry analysis. Chromatographic separation was performed using a nanoflow Evosep One system. The separated samples were analyzed by DIA mass spectrometry using a timsTOF Pro mass spectrometer (Bruker Daltonics, Bremen, Germany). Detection was conducted in positive-ion mode, with MS and MS/MS scanning ranges set from 100 to 1700 m/z. MS2 data acquisition was performed in DIA mode, with four TIMS scan windows, each accumulating for 100 ms. In PASEF mode, the collision energy varied linearly with ion mobility (1/K0), ranging from 20 to 59 eV for ions with 1/K0 values between 0.85 and 1.30 Vs/cm^2. The DIA data were processed using Spectronaut 19 software with the following parameter settings: retention time prediction type set to dynamic iRT, interference correction on MS2 level enabled, cross-run normalization enabled, maximum missed cleavage sites set to 2, fixed modification set to Carbamidomethyl (C), and variable modifications set to Oxidation (M) and Acetyl (Protein N-term). All results were filtered with a Q-value cutoff of 0.01, corresponding to a false discovery rate (FDR) of less than 1%. The target protein set was annotated using Blast2GO (version BLASTP 2.8.0+). The process included four steps: sequence alignment (Blast), GO mapping, GO annotation, and additional annotation augmentation using InterProScan. Using the KOBAS 3.0 software, KEGG pathway annotation was performed on the target protein set. Fisher’s exact test was employed to compare the distribution of GO categories in the target protein set and the overall protein set, thereby conducting enrichment analysis of the GO annotations in the target protein set. The proteomics dataset generated in this study has been made publicly available through the PRIDE ProteomeXchange Consortium with the dataset identifier PXD061919.

Chain of mushroom tyrosinase (C7FF04 2-392): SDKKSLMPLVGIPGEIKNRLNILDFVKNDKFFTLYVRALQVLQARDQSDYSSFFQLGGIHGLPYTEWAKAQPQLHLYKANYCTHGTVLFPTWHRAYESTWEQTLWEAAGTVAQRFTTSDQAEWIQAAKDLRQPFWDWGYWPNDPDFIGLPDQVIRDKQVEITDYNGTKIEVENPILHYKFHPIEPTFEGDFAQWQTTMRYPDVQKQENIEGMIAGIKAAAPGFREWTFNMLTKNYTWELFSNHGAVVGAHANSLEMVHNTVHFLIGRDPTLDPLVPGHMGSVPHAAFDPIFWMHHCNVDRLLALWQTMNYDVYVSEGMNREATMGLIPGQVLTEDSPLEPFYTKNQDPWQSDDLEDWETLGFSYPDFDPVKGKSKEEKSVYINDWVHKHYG

Question: How did the inhibition at 6000 µM (mushroom tyrosinase) turn out when O=C(O)CC(O)C(=O)O (centres unmarked) [malic acid] was run?
Answer: > 80%

Question: And the “Abhd14a protein fold change” value (B16-F10 cells)?
Answer: 0.4947

Question: What about the “Acvr1b protein fold change” value (B16-F10 cells) of the same compound?
Answer: 0.348

Question: And the “Adgrg1 protein fold change” value (B16-F10 cells)?
Answer: 0.3255

Question: And the “Aplp2 protein fold change” value (B16-F10 cells)?
Answer: 0.1925

Question: And the “App protein fold change” value (B16-F10 cells)?
Answer: 0.309

Question: What about the “Arrdc3 protein fold change” value (B16-F10 cells) of the same compound?
Answer: 0.2723

Question: And the “Atp6ap2 protein fold change” value (B16-F10 cells)?
Answer: 0.4615

Question: And the “Atxn2l protein fold change” value (B16-F10 cells)?
Answer: 0.3743

Question: What about the “Bace2 protein fold change” value (B16-F10 cells) of the same compound?
Answer: 0.2949

Question: And the “CUB domain-containing protein (Q3TD85) fold change” value (B16-F10 cells)?
Answer: 0.319

Question: What about the “Cd151 protein fold change” value (B16-F10 cells) of the same compound?
Answer: 0.3796

Question: And the “Cox6a1 protein fold change” value (B16-F10 cells)?
Answer: 2.331

Question: And the “Cpe protein fold change” value (B16-F10 cells)?
Answer: 0.425

Question: What about the “Cryab protein fold change” value (B16-F10 cells) of the same compound?
Answer: 0.4352

Question: What about the “Ctns protein fold change” value (B16-F10 cells) of the same compound?
Answer: 0.4962

Question: What about the “Cxne protein fold change” value (B16-F10 cells) of the same compound?
Answer: 0.4043

Question: And the “Cyp51a1 protein fold change” value (B16-F10 cells)?
Answer: 0.4596

Question: And the “Dct protein fold change” value (B16-F10 cells)?
Answer: 0.453

Question: What about the “Ddr1 protein fold change” value (B16-F10 cells) of the same compound?
Answer: 0.4956

Question: And the “Dgcr2 protein fold change” value (B16-F10 cells)?
Answer: 0.4757

Question: What about the “Dhrsx protein fold change” value (B16-F10 cells) of the same compound?
Answer: 0.4224

Question: What about the “E2f5 protein fold change” value (B16-F10 cells) of the same compound?
Answer: 2.052

Question: What about the “Eng protein fold change” value (B16-F10 cells) of the same compound?
Answer: 0.4971

Question: What about the “Fam174b protein fold change” value (B16-F10 cells) of the same compound?
Answer: 0.4334

Question: What about the “Fau protein fold change” value (B16-F10 cells) of the same compound?
Answer: 4.207

Question: And the “Fip1l1 protein fold change” value (B16-F10 cells)?
Answer: 0.4619

Question: What about the “Fth1 protein fold change” value (B16-F10 cells) of the same compound?
Answer: 2.2552

Question: What about the “Ftl1 protein fold change” value (B16-F10 cells) of the same compound?
Answer: 2.521

Question: And the “Ginm1 protein fold change” value (B16-F10 cells)?
Answer: 0.2408

Question: What about the “Globin family profile domain-containing protein (Q8BPF4) fold change” value (B16-F10 cells) of the same compound?
Answer: 0.4868

Question: What about the “Gpnmb protein fold change” value (B16-F10 cells) of the same compound?
Answer: 0.4267

Question: What about the “H1-0 protein fold change” value (B16-F10 cells) of the same compound?
Answer: 2.091

Question: What about the “H1-1 protein fold change” value (B16-F10 cells) of the same compound?
Answer: 2.387

Question: And the “Haghl protein fold change” value (B16-F10 cells)?
Answer: 2.0913

Question: What about the “Hbbt1 protein fold change” value (B16-F10 cells) of the same compound?
Answer: 0.3537

Question: And the “Hist2h2aa1 protein fold change” value (B16-F10 cells)?
Answer: 5.559

Question: And the “Hspb1 protein fold change” value (B16-F10 cells)?
Answer: 0.432

Question: What about the “Ifitm2 protein fold change” value (B16-F10 cells) of the same compound?
Answer: 0.2473

Question: What about the “Ifitm3 protein fold change” value (B16-F10 cells) of the same compound?
Answer: 0.405

Question: And the “Ifngr1 protein fold change” value (B16-F10 cells)?
Answer: 0.477

Question: And the “Il10rb protein fold change” value (B16-F10 cells)?
Answer: 0.279

Question: What about the “Il17ra protein fold change” value (B16-F10 cells) of the same compound?
Answer: 0.4348

Question: And the “Itih3 protein fold change” value (B16-F10 cells)?
Answer: 0.2609

Question: What about the “Itm2b protein fold change” value (B16-F10 cells) of the same compound?
Answer: 0.1357

Question: And the “Itm2c protein fold change” value (B16-F10 cells)?
Answer: 0.2222

Question: What about the “Lama2 protein fold change” value (B16-F10 cells) of the same compound?
Answer: 2.748

Question: What about the “Laptm4b protein fold change” value (B16-F10 cells) of the same compound?
Answer: 0.1099

Question: What about the “Ldlr protein fold change” value (B16-F10 cells) of the same compound?
Answer: 0.3286

Question: And the “Lgmn protein fold change” value (B16-F10 cells)?
Answer: 0.3573

Question: What about the “Lmbrd1 protein fold change” value (B16-F10 cells) of the same compound?
Answer: 0.4382

Question: What about the “Map1lc3b protein fold change” value (B16-F10 cells) of the same compound?
Answer: 0.4627

Question: And the “Mapre2 protein fold change” value (B16-F10 cells)?
Answer: 0.4775

Question: And the “Mfap3 protein fold change” value (B16-F10 cells)?
Answer: 0.2203

Question: What about the “Mfge8 protein fold change” value (B16-F10 cells) of the same compound?
Answer: 0.4888

Question: What about the “Mlana protein fold change” value (B16-F10 cells) of the same compound?
Answer: 0.1802

Question: What about the “Ndfip1 protein fold change” value (B16-F10 cells) of the same compound?
Answer: 0.1482

Question: And the “Nrp1 protein fold change” value (B16-F10 cells)?
Answer: 0.4816

Question: And the “Nrp2 protein fold change” value (B16-F10 cells)?
Answer: 0.3963

Question: And the “Nus1 protein fold change” value (B16-F10 cells)?
Answer: 0.4939

Question: And the “Pbx1 protein fold change” value (B16-F10 cells)?
Answer: 2.038

Question: And the “Pcdhgb2 protein fold change” value (B16-F10 cells)?
Answer: 0.2826

Question: What about the “Peli1 protein fold change” value (B16-F10 cells) of the same compound?
Answer: 0.4419

Question: And the “Plekhb2 protein fold change” value (B16-F10 cells)?
Answer: 0.4812

Question: What about the “Pmel protein fold change” value (B16-F10 cells) of the same compound?
Answer: 0.458

Question: And the “Ppp1r12b protein fold change” value (B16-F10 cells)?
Answer: 2.498

Question: And the “Psap protein fold change” value (B16-F10 cells)?
Answer: 0.4952

Question: And the “Ptprs protein fold change” value (B16-F10 cells)?
Answer: 0.4661

Question: What about the “Pwwp3a protein fold change” value (B16-F10 cells) of the same compound?
Answer: 2.511

Question: And the “Rhob protein fold change” value (B16-F10 cells)?
Answer: 0.4341

Question: What about the “Rhoj protein fold change” value (B16-F10 cells) of the same compound?
Answer: 0.4834

Question: What about the “Rnf130 protein fold change” value (B16-F10 cells) of the same compound?
Answer: 0.4325

Question: What about the “Sdcbp protein fold change” value (B16-F10 cells) of the same compound?
Answer: 0.4716

Question: And the “Sema4b protein fold change” value (B16-F10 cells)?
Answer: 0.4477

Question: What about the “Sema6d protein fold change” value (B16-F10 cells) of the same compound?
Answer: 0.4605

Question: What about the “Sgce protein fold change” value (B16-F10 cells) of the same compound?
Answer: 0.2346

Question: What about the “Sh3bp2 protein fold change” value (B16-F10 cells) of the same compound?
Answer: 0.3699

Question: And the “Slc4a2 protein fold change” value (B16-F10 cells)?
Answer: 0.4141

Question: And the “Slc24a5 protein fold change” value (B16-F10 cells)?
Answer: 0.4133

Question: What about the “Slc38a2 protein fold change” value (B16-F10 cells) of the same compound?
Answer: 0.2034

Question: And the “Slc45a2 protein fold change” value (B16-F10 cells)?
Answer: 0.4213

Question: And the “Sppl2b protein fold change” value (B16-F10 cells)?
Answer: 0.4857

Question: What about the “Spring1 protein fold change” value (B16-F10 cells) of the same compound?
Answer: 0.2636

Question: And the “Syt4 protein fold change” value (B16-F10 cells)?
Answer: 0.1657

Question: What about the “Tax1bp1 protein fold change” value (B16-F10 cells) of the same compound?
Answer: 0.4715

Question: What about the “Tcf7l1 protein fold change” value (B16-F10 cells) of the same compound?
Answer: 0.4286

Question: And the “Tgfbr1 protein fold change” value (B16-F10 cells)?
Answer: 0.4711

Question: What about the “Tk1 protein fold change” value (B16-F10 cells) of the same compound?
Answer: 2.015

Question: And the “Tmem59 protein fold change” value (B16-F10 cells)?
Answer: 0.1062

Question: And the “Tmem176a protein fold change” value (B16-F10 cells)?
Answer: 0.2285

Question: And the “Tnfrsf1a protein fold change” value (B16-F10 cells)?
Answer: 0.4638

Question: What about the “Tpp1 protein fold change” value (B16-F10 cells) of the same compound?
Answer: 0.3033

Question: What about the “Tspan3 protein fold change” value (B16-F10 cells) of the same compound?
Answer: 0.3098

Question: What about the “Tspan6 protein fold change” value (B16-F10 cells) of the same compound?
Answer: 0.466

Question: What about the “Tspan10 protein fold change” value (B16-F10 cells) of the same compound?
Answer: 0.2722

Question: What about the “Tspan14 protein fold change” value (B16-F10 cells) of the same compound?
Answer: 0.4171

Question: What about the “Tyr protein fold change” value (B16-F10 cells) of the same compound?
Answer: 0.3761

Question: And the “Tyrp1 protein fold change” value (B16-F10 cells)?
Answer: 0.2755

Question: And the “Ubl3 protein fold change” value (B16-F10 cells)?
Answer: 0.2044

Question: What about the “Wfdc3 protein fold change” value (B16-F10 cells) of the same compound?
Answer: 0.3403

Question: What about the “il6st protein fold change” value (B16-F10 cells) of the same compound?
Answer: 0.3637
